Source: ChEMBL document CHEMBL1671799, “Modelling topoisomerase I inhibition by minor groove binders” (Bioorg Med Chem, 2011)
The source made the active and inactive calls. The calls are words filed in the database; no cut-off is given here.

Organism: Bos taurus
Assay: Inhibition of calf thymus topoisomerase 1 relative to Hoechst 33342

Ratio	inhibition	Structure (SMILES)
1		CC(C)c1nc2ccc(-c3nc4cc(-c5ccccc5)ccc4[nH]3)cc2[nH]1
2		c1ccc2c(c1)ccc1[nH]c(-c3ccc4nc[nH]c4c3)nc12
10		N#Cc1ccc2[nH]c(-c3ccc4[nH]c(-c5ccc6ccccc6c5)nc4c3)nc2c1
> 300000		COc1ccc(-c2nc3cc(CN)ccc3[nH]2)cc1
	inactive	COc1ccc(-c2cc3cc([N+](=O)[O-])ccc3[nH]2)cc1
	inactive	COc1ccc(-c2nc3ccc([N+](=O)[O-])cc3o2)cc1
3.3		c1ccc(-c2ccc3[nH]c(-c4ccc5[nH]c(-c6ccc7[nH]cnc7c6)nc5c4)nc3c2)nc1
100		Cc1ccccc1-c1nc2cc(-c3nc4cc(C(N)=O)ccc4[nH]3)ccc2[nH]1
1		Brc1ccc2[nH]c(-c3ccc4nc(-c5ccc6nc[nH]c6c5)[nH]c4c3)nc2c1
3.3		COc1ccc(-c2nc3cc(-c4nc5cc(C#N)ccc5[nH]4)ccc3[nH]2)cc1
1		COc1ccc(-c2nc3cc(-c4nc5cc(N6CCN(C)CC6)ccc5[nH]4)ccc3[nH]2)cc1
10		Cc1ccccc1-c1nc2cc(-c3nc4cc(N5CCN(C)CC5)ccc4[nH]3)ccc2[nH]1
2		COc1ccc(-c2nc3cc(-c4nc5cc(CCCN(C)C)ccc5[nH]4)ccc3[nH]2)cc1
4		Cc1nc2ccc(-c3nc4cc(-c5ccccc5)ccc4[nH]3)cc2[nH]1
> 300000		COc1ccc(-c2nc3cc(Br)ccc3[nH]2)cc1
300		COc1ccc(-c2nc3cc([N+](=O)[O-])ccc3[nH]2)cc1
> 300000		COc1ccc(-c2nc3cc(C#N)ccc3[nH]2)cc1
1		COc1ccc(-c2ccc3[nH]c(-c4ccc5nc[nH]c5c4)nc3c2)cc1
2		c1ccc(-c2ccc3[nH]c(-c4ccc5nc[nH]c5c4)nc3c2)cc1
1		Cc1ccc(-c2nc3cc(-c4nc5cc(N6CCN(C)CC6)ccc5[nH]4)ccc3[nH]2)cc1
10		NC(=O)c1ccc2[nH]c(-c3ccc4[nH]c(-c5ccccc5)nc4c3)nc2c1
> 100		N#Cc1ccc2[nH]c(-c3ccc4[nH]c(-c5ccccc5)nc4c3)nc2c1
5		c1ccc(-c2ccc3[nH]c(-c4ccc5[nH]c(-c6ccc7cc[nH]c7c6)nc5c4)nc3c2)cc1

Ratio	inhibition	Structure (SMILES)
2		CCc1nc2ccc(-c3nc4cc(-c5ccccc5)ccc4[nH]3)cc2[nH]1
2		c1cncc(-c2ccc3[nH]c(-c4ccc5[nH]c(-c6ccc7[nH]cnc7c6)nc5c4)nc3c2)c1
1		c1ccc(-c2cc3nc(-c4ccc5nc(-c6ccc7nc[nH]c7c6)[nH]c5c4)[nH]c3cc2-c2ccccc2)cc1
10		Cc1ccc(-c2nc3cc(-c4nc5cc(C(N)=O)ccc5[nH]4)ccc3[nH]2)cc1
100		COc1ccc(-c2nc3cc(-c4nc5cc(N)ccc5[nH]4)ccc3[nH]2)cc1
1		Clc1ccc2[nH]c(-c3ccc4nc(-c5ccc6nc[nH]c6c5)[nH]c4c3)nc2c1
30000		COc1ccc(-c2nc3cc(CO)ccc3[nH]2)cc1
10		c1ccc(-c2cccc3[nH]c(-c4ccc5nc[nH]c5c4)nc23)cc1
1		Nc1ccc2[nH]c(-c3ccc4nc(-c5ccc6nc[nH]c6c5)[nH]c4c3)nc2c1
300		COc1ccc(-c2nc3cc(C=O)ccc3[nH]2)cc1
2		c1ccc2cc(-c3ccc4[nH]c(-c5ccc6nc[nH]c6c5)nc4c3)ccc2c1
0.5		c1nc2ccc(-c3nc4ccc(-c5nc6cc(N7CCCCC7)ccc6[nH]5)cc4[nH]3)cc2[nH]1
0.05		Fc1ccc2[nH]c(-c3ccc4nc(-c5ccc6nc[nH]c6c5)[nH]c4c3)nc2c1
5		COc1ccc(-c2nc3cc(-c4nc5cc(CCN(C)C)ccc5[nH]4)ccc3[nH]2)cc1
	inactive	COc1ccc(-c2nc3cc([N+](=O)[O-])ccc3o2)cc1
2000		c1ccc2cc3[nH]c(-c4ccc5nc[nH]c5c4)nc3cc2c1
10		CN1CCN(c2ccc3[nH]c(-c4ccc5[nH]c(-c6ccc7ccccc7c6)nc5c4)nc3c2)CC1
	inactive	COc1ccc(-c2cc3ccc([N+](=O)[O-])cc3[nH]2)cc1
1000		N#Cc1ccc2[nH]c(-c3ccc4[nH]cnc4c3)nc2c1
10		c1ccc2c(-c3ccc4[nH]c(-c5ccc6[nH]c(-c7ccc8[nH]cnc8c7)nc6c5)nc4c3)cccc2c1
3000		COc1ccc(-c2nc3cc(C(N)=O)ccc3[nH]2)cc1
1000		COc1ccc(-c2nc3cc(-c4nc5cc(N(C)C)ccc5[nH]4)ccc3[nH]2)cc1
4		c1ccc2c(-c3ccc4[nH]c(-c5ccc6nc[nH]c6c5)nc4c3)cccc2c1

Ratio	inhibition	Structure (SMILES)
0.5		Oc1ccc2[nH]c(-c3ccc4nc(-c5ccc6nc[nH]c6c5)[nH]c4c3)nc2c1
2		COc1ccc(-c2nc3cc(-c4nc5cc(OC6CCN(C)CC6)ccc5[nH]4)ccc3[nH]2)cc1
0.1		N#Cc1ccc2[nH]c(-c3ccc4[nH]c(-c5ccc6[nH]cnc6c5)nc4c3)nc2c1
	inactive	COc1ccc(-c2nc3cc([N+](=O)[O-])ccc3s2)cc1
0.5		CCCc1ccc2[nH]c(-c3ccc4[nH]c(-c5ccc6[nH]cnc6c5)nc4c3)nc2c1
20		CN1CCN(c2ccc3[nH]c(-c4ccc5[nH]c(-c6cccc7ccccc67)nc5c4)nc3c2)CC1
100		NC(=O)c1ccc2[nH]c(-c3ccc4[nH]c(-c5ccc6ccccc6c5)nc4c3)nc2c1
	inactive	COc1ccc(-c2nc3ccc([N+](=O)[O-])cc3s2)cc1
> 300000		COc1ccc(-c2nc3ccccc3[nH]2)cc1
40		COc1ccc(-c2nc3ccc(-c4nc5cc(-c6ccccc6)ccc5[nH]4)cc3[nH]2)cc1
10		c1ccc2cc(-c3ccc4[nH]c(-c5ccc6[nH]c(-c7ccc8[nH]cnc8c7)nc6c5)nc4c3)ccc2c1
> 100		c1ccc(-c2ccc3[nH]c(-c4ccc5[nH]c(-c6ccc7nccnc7c6)nc5c4)nc3c2)cc1
20		NC(=O)c1ccc2[nH]c(-c3ccc4[nH]c(-c5cccc6ccccc56)nc4c3)nc2c1
2		COc1cc2nc(-c3ccc4nc(-c5ccc6nc[nH]c6c5)[nH]c4c3)[nH]c2cc1Br
1		c1ccc(-c2ccc3[nH]c(-c4ccc5[nH]c(-c6ccc7[nH]cnc7c6)nc5c4)nc3c2)cc1
1000		COc1ccc(-c2nc3cc(-c4nc5cc([N+](=O)[O-])ccc5[nH]4)ccc3[nH]2)cc1
1000		COc1ccc(-c2nc3cc(-c4nc5cc(-c6nc7cc(C#N)ccc7[nH]6)ccc5[nH]4)ccc3[nH]2)cc1
2.5		COc1ccc(-c2nc3cc(-c4nc5cc(CN(C)C)ccc5[nH]4)ccc3[nH]2)cc1
100		Cc1cccc(-c2nc3cc(-c4nc5cc(C(N)=O)ccc5[nH]4)ccc3[nH]2)c1
2		c1cc(-c2ccc3[nH]c(-c4ccc5[nH]c(-c6ccc7[nH]cnc7c6)nc5c4)nc3c2)ccn1
1		Oc1nc2ccc(-c3nc4ccc(-c5nc6ccc(Br)cc6[nH]5)cc4[nH]3)cc2[nH]1
10		N#Cc1ccc2[nH]c(-c3ccc4[nH]c(-c5cccc6ccccc56)nc4c3)nc2c1
1		FC(F)(F)c1nc2ccc(-c3nc4ccc(-c5nc6cc(Br)c(Br)cc6[nH]5)cc4[nH]3)cc2[nH]1

Ratio	inhibition	Structure (SMILES)
1		Cc1cccc(-c2nc3cc(-c4nc5cc(N6CCN(C)CC6)ccc5[nH]4)ccc3[nH]2)c1
4		Clc1ccc(-c2ccc3[nH]c(-c4ccc5nc[nH]c5c4)nc3c2)cc1
1		Cc1ccc(-c2nc3cc(-c4nc5cc(C#N)ccc5[nH]4)ccc3[nH]2)cc1
0.5		COc1cc2nc(-c3ccc4nc(-c5ccc6nc[nH]c6c5)[nH]c4c3)[nH]c2cc1-c1ccccc1
100		Cc1cccc(-c2nc3cc(-c4nc5cc(C#N)ccc5[nH]4)ccc3[nH]2)c1
1		Oc1nc2ccc(-c3nc4cc(-c5nc6cc(-c7ccccc7)ccc6[nH]5)ccc4[nH]3)cc2nc1O
> 300000		COc1ccc(-c2nc3cc(C(=O)O)ccc3[nH]2)cc1
1		Brc1cc2nc(-c3ccc4nc(-c5ccc6nc[nH]c6c5)[nH]c4c3)[nH]c2cc1Br
40		c1ccc(-c2ccc3[nH]c(-c4ccc5nc(-c6ccccc6)[nH]c5c4)nc3c2)cc1
50		c1ccc(-c2ccc3[nH]c(-c4ccc5[nH]c(-c6ccc7[nH]ccc7c6)nc5c4)nc3c2)cc1
> 300000		COc1ccc(-c2nc3c([N+](=O)[O-])cccc3[nH]2)cc1
1		CCCc1nc2ccc(-c3nc4ccc(-c5nc6ccc(Br)cc6[nH]5)cc4[nH]3)cc2[nH]1
> 500		Cc1ccccc1-c1nc2cc(-c3nc4cc(C#N)ccc4[nH]3)ccc2[nH]1
0.05		COc1ccc2[nH]c(-c3ccc4nc(-c5ccc6nc[nH]c6c5)[nH]c4c3)nc2c1
1		FC(F)(F)c1nc2ccc(-c3nc4ccc(-c5nc6ccc(-c7ccc(Cl)cc7)cc6[nH]5)cc4[nH]3)cc2[nH]1
0.5		O=[N+]([O-])c1ccc2[nH]c(-c3ccc4nc(-c5ccc6nc[nH]c6c5)[nH]c4c3)nc2c1
1		CCCc1nc2ccc(-c3nc4cc(-c5ccccc5)ccc4[nH]3)cc2[nH]1
1		Clc1nc2ccc(-c3nc4ccc(-c5nc6cc(Br)c(Br)cc6[nH]5)cc4[nH]3)cc2[nH]1
1		CN1CCN(c2ccc3[nH]c(-c4ccc5[nH]c(-c6ccccc6)nc5c4)nc3c2)CC1
1		c1ccc(-c2ccc3[nH]c(-c4ccc5[nH]c(-c6ccc7[nH]nnc7c6)nc5c4)nc3c2)cc1

Structure (SMILES)	Ratio	inhibition
c1ccc2[nH]c(-c3ccc4[nH]c(-c5ccc6[nH]cnc6c5)nc4c3)nc2c1	1.1	
